Target: CBP (Homo sapiens (Human), UniProt Q92793)
Experiment: HTRF biochemical assay for CBP activity (TR-FRET, bromodomain)
Assay type: binding
Settings: geometric mean, 10-point 3-fold dilution 33 μM to 1.7 nM, read-out: BROMO IC50 TRF TB CBP (μM gmean)
Method: Example 1: HTRF Biochemical Assay for CBP Activity
The assay was performed in a final volume of 6 μL in assay buffer containing 50 mM Hepes (pH 7.5, (0.5M Hepes, pH 7.5 solution; Teknova H1575)), 0.5 mM GSH, 0.01% BGG (0.22 p M filtered, Sigma, G7516-25G), 0.005% BSA (0.22 μM filtered, EMD Millipore Corporation, 126575) and 0.01% Triton X-100 (Sigma, T9284-10L). Nanoliter quantities of 10-point, 3-fold serial dilution in DMSO were pre-dispensed into 1536 assay plates (Corning, #3724BC) for a final test concentration of 33 μM to 1.7 nM, top to lowest dose, respectively. 3 μL of 2×Protein and 3 μL of 2×Peptide Ligand were added to assay plates (pre-stamped with compound). Plates were incubated for varying times at room temperature prior to measuring the signal. TR-FRET (Time-Resolved Fluorescence Resonance Energy Transfer) was measured on the PHERAstar (BMG, equipped with HTRF optic module [337/520/490]) or on the Envision (PerkinElmer, equipped with the TRF Laser unit, TRF dual mirror D400/D505 and emission filters M520 and M495). Data were reported as percent inhibition compared with control wells based on the following equation: % inh=1−((TR-FRET ratio−AveLow)/(AveHigh−AveLow)) where TR-FRET ratio=(Fluorescence at 520 nm/Fluorescence at 490 nm)*10000), AveLow=average TR-FRET ratio of no enzyme control (n=32), and AveHigh=average TR-FRET ratio of DMSO control (n=32). IC50 values were determined by curve fitting of the standard 4 parameter logistic fitting algorithm included in the Activity Base software package: IDBS XE Designer Model205. Data is fitted using the Levenburg Marquardt algorithm. As set forth in Table 2 below, an IC50 value of greater than or equal to 0.001 μM and less than or equal to 0.01 μM is marked “++++”; a value greater than 0.01 μM and less than or equal to 0.1 μM is marked “+++”; a value greater than 0.1 μM and less than or equal to 1 μM is marked “++”; and a value greater than 1 μM and less than 1000 μM is marked “+.” Compounds that were not tested in a particular assay are marked “NT.”

Sequence of CBP (Q92793 1085-1192): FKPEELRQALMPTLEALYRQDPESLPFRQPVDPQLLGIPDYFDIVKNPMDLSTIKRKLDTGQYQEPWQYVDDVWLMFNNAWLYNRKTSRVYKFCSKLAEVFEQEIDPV

Compound | IC50
COC(=O)N1CCc2ccc3c(nc([C@H]4CC[C@H](OC)CC4)n3C[C@@H](C(=O)O)c3ccccc3)c2C1 [Compound 123] | 0.001 to 0.01 µM
COC(=O)N1CCc2ccc3c(nc([C@H]4CC[C@H](C(=O)O)CC4)n3[C@H](C)Cc3ccc(F)c(F)c3)c2C1 [Compound 40] | 0.001 to 0.01 µM
COC(=O)N1CCc2ccc3c(nc(C4CCN(S(C)(=O)=O)CC4)n3[C@H](C)Cc3cccc(C(=O)O)c3)c2C1 [Compound 331] | 0.1 to 1 µM
COC(=O)N1CCc2ccc3c(nc(C4CCC(C(=O)O)CC4)n3CCc3ccccc3)c2C1 (stereo not drawn) [Compound 84] | 0.001 to 0.01 µM
COC(=O)N1CCc2ccc3c(nc(N4CCN(S(C)(=O)=O)CC4)n3[C@H](C)Cn3cc(Cl)cn3)c2C1 [Compound 343] | 0.1 to 1 µM
COC(=O)N1CCc2ccc3c(nc([C@H]4CC[C@H](C(=O)O)CC4)n3[C@H](C)Cc3ccccc3Cl)c2C1 [Compound 297] | 0.1 to 1 µM
(2R)-3-[2-cyclohexyl-8-(methoxycarbonyl)-3H,6H,7H,8H,9H-imidazo[4,5-h]isoquinolin-3-yl]-2-(5-fluoro-2-methoxyphenyl)propanoic acid [Compound 241] | 0.01 to 0.1 µM
COC(=O)N1CCc2ccc3c(nc(N4CCC[C@H](C(=O)O)C4)n3[C@@H](C)Cc3ccccc3)c2C1 [Compound 161] | 0.001 to 0.01 µM
COC(=O)N1CCc2ccc3c(nc(N4CC[C@H](C(=O)O)C4)n3[C@@H](C)Cc3ccccc3)c2C1 [Compound 222] | 0.01 to 0.1 µM
COC(=O)N1CCc2ccc3c(nc([C@H]4CC[C@H](C(=O)O)CC4)n3CC(F)(F)c3ccccc3)c2C1 [compound 145] | 0.001 to 0.01 µM
COC(=O)N1CCc2c(Cl)cc3c(nc(C4CCCCC4)n3C[C@H](C(=O)O)c3ccccc3)c2C1 [Compound 223] | 0.01 to 0.1 µM
COC(=O)N1CCc2ccc3c(nc([C@H]4CCC[C@@H](C(=O)O)C4)n3[C@H](C)Cc3ccccc3)c2C1 (single isomer, unassigned) [Compound 12] | 0.001 to 0.01 µM
COC(=O)N1CCc2ccc3c(nc([C@H]4CC[C@H](C(=O)O)CC4)n3[C@H](C)Cc3ccc4c(c3)CCO4)c2C1 [Compound 332] | 0.1 to 1 µM
COC(=O)N1CCc2ccc3c(nc([C@H]4CC[C@H](C(=O)O)CC4)n3[C@H](C)C[C@H]3CC[C@H](OC(F)(F)F)CC3)c2C1 [Compound 317] | 0.1 to 1 µM
COC(=O)N1CCc2c(Cl)cc3c(nc([C@H]4CC[C@H](C(=O)O)CC4)n3[C@H](C)Cc3ccccc3)c2C1 [Compound 305] | 0.1 to 1 µM
COC(=O)N1CCc2ccc3c(nc([C@@H]4CCC[C@H](C(=O)O)C4)n3[C@H](C)Cc3ccccc3)c2C1 (single isomer, unassigned) [Compound 233] | 0.01 to 0.1 µM
COC(=O)N1CCc2cc(C(=O)O)c3c(nc(C4CCCCC4)n3CCc3ccccc3)c2C1 [Compound 181] | 0.01 to 0.1 µM
COC(=O)N1CCc2cc(C#N)c3c(nc([C@H]4CC[C@H](C(=O)O)CC4)n3CCc3ccccc3)c2C1 [Compound 153] | 0.001 to 0.01 µM
COC(=O)N1CCc2ccc3c(nc(N4CCC(C(=O)O)CC4)n3[C@H](C)Cc3ccccc3)c2C1 (single isomer, unassigned) [Compound 325] | 0.1 to 1 µM
COC(=O)N1CCc2ccc3c(nc(-c4cccc(CC(=O)O)c4)n3[C@H](C)Cc3cc(F)cc(F)c3)c2C1 [Compound 322] | 0.1 to 1 µM
COC(=O)N1CCc2ccc3c(nc(-c4cccc(CC(=O)O)c4)n3[C@@H](C)Cn3cc(Cl)cn3)c2C1 [Compound 113] | 0.001 to 0.01 µM
COC(=O)N1CCc2ccc3c(nc([C@H]4CC[C@H](C(=O)O)CC4)n3[C@@H](C)C[C@@H]3CCCOC3)c2C1 [Compound 183] | 0.01 to 0.1 µM
COC(=O)N1CCc2ccc3c(nc([C@H]4CC[C@H](C(=O)O)CC4)n3[C@@H](C)Cc3cnccn3)c2C1 [Compound 186] | 0.01 to 0.1 µM
COC(=O)N1CCc2ccc3c(nc([C@@H]4CCC[C@@H](C(=O)O)C4)n3[C@H](C)Cc3ccccc3C)c2C1 (single isomer, unassigned) [Compound 284] | 0.01 to 0.1 µM
COC(=O)N1CCc2ccc3c(nc(C4CCCC4)n3C[C@@H](CC(=O)O)c3ccccc3)c2C1 (single isomer, unassigned) [Compound 34] | 0.001 to 0.01 µM
COC(=O)N1CCc2ccc3c(nc(N4CCC[C@@H](C(=O)O)C4)n3C[C@@H](C)c3ccccc3)c2C1 [Compound 165] | 0.001 to 0.01 µM

Compound | IC50
COC(=O)N1CCc2ccc3c(nc([C@H]4CCCOC4)n3C[C@@H](C(=O)O)c3ccc(C)cc3)c2C1 [Compound 58] | 0.001 to 0.01 µM
COC(=O)N1CCc2ccc3c(nc(C4CCCCC4)n3C[C@@H](CC(=O)O)c3ccc(F)c(F)c3)c2C1 [Compound 21] | 0.001 to 0.01 µM
COC(=O)N1CCc2ccc3c(nc(C4CCCCC4)n3C[C@H](O)c3cccc(C(=O)O)c3)c2C1 [Compound 173] | 0.01 to 0.1 µM
COC(=O)N1CCc2c(C#N)cc3c(nc([C@H]4CC[C@H](C(=O)O)CC4)n3[C@@H](C)Cc3ccccc3)c2C1 [Compound 52] | 0.001 to 0.01 µM
COC(=O)N1CCc2ccc3c(nc([C@H]4CC[C@H](C(=O)O)CC4)n3[C@H]3CCc4ccccc4C3)c2C1 [Compound 315] | 0.1 to 1 µM
COC(=O)N1CCc2ccc3c(nc(C4CCCCC4)n3C[C@H](C(=O)O)c3ccccc3)c2C1 [Compound 38] | 0.001 to 0.01 µM
(1S,3S)-3-[3-[(2R)-1-(3,4-difluorophenyl)propan-2-yl]-8-(methoxycarbonyl)-3H,6H,7H,8H,9H-imidazo[4,5-h]isoquinolin-2-yl]cyclohexane-1-carboxylic acid [Compound 31] | 0.001 to 0.01 µM
COC(=O)N1CCc2ccc3c(nc([C@H]4CCC[C@H](C(=O)O)C4)n3[C@@H](C)Cc3ccccc3)c2C1 [Compound 261] | 0.01 to 0.1 µM
COC(=O)N1CCc2ccc3c(nc(C4CCCCC4)n3[C@@H](C)C[C@@H]3CCCC[C@H]3C(=O)O)c2C1 [Compound 210] | 0.01 to 0.1 µM
COC(=O)N1CCc2ccc3c(nc([C@H]4CC[C@@H](S(N)(=O)=O)CC4)n3[C@H](C)Cc3ccccc3)c2C1 [Compound 310] | 0.1 to 1 µM
COC(=O)N1CCc2ccc3c(nc(C4CCCCC4)n3C[C@H]3CCCC[C@H]3C(=O)O)c2C1 [Compound 187] | 0.01 to 0.1 µM
COC(=O)N1CCc2ccc3c(nc([C@H]4CC[C@H](C(=O)O)CC4)n3[C@@H](C)[C@H](O)c3ccccc3)c2C1 [Compound 268] | 0.01 to 0.1 µM
COC(=O)N1CCc2ccc3c(nc([C@H]4CCCOC4)n3C[C@H](C(=O)O)c3ccccc3)c2C1 [Compound 89] | 0.001 to 0.01 µM
COC(=O)N1CCc2ccc3c(nc([C@H]4CC[C@H](C(=O)O)CC4)n3[C@@H](C)C(F)(F)c3ccccc3)c2C1 [Compound 338] | 0.1 to 1 µM
COC(=O)N1CCc2ccc3c(nc([C@H]4CC[C@H](C(=O)O)CC4)n3Cc3ccc4c(c3)OCC4)c2C1 [Compound 86] | 0.001 to 0.01 µM
COC(=O)N1CCc2ccc3c(nc([C@H]4CC[C@H](C(=O)NS(C)(=O)=O)CC4)n3[C@H](C)Cc3ccccc3)c2C1 (single isomer, unassigned) [Compound 290] | 0.1 to 1 µM
COC(=O)N1CCc2ccc3c(nc([C@@H]4CCC[C@@H](C(=O)O)C4)n3C(C)Cc3ccccc3)c2C1 (stereo in doubt) [Compound 99, (1R,3R)-3-[8-(methoxycarbonyl)-3-[(2S)-1-phenylpropan-2-yl]-3H,6H,7H,8H,9H-imidazo[4,5-h]isoquinolin-2-yl]cyclohexane-1-carboxylic acid] | 0.001 to 0.01 µM
COC(=O)N1CCc2ccc3c(nc([C@H]4CCC[C@@H](C(=O)O)C4)n3[C@@H](C)Cc3ccccc3)c2C1 (single isomer, unassigned) [Compound 13] | 0.001 to 0.01 µM
COC(=O)N1CCc2ccc3c(nc(C4CCCCC4)n3C[C@@H](O)c3cccc(C(=O)O)c3)c2C1 [Compound 199] | 0.01 to 0.1 µM
COC(=O)N1CCc2ccc3c(nc([C@H]4CC[C@H](C(=O)O)CC4)n3Cc3ccc(OC)c(F)c3)c2C1 [Compound 94] | 0.001 to 0.01 µM
COC(=O)N1CCc2c(Cl)cc3c(nc(C4CCCCC4)n3C[C@@H](C(=O)O)c3ccccc3)c2C1 [Compound 56] | 0.001 to 0.01 µM
COC(=O)N1CCc2ccc3c(nc(C4CCCCC4)n3CC[C@H]3CCC[C@H](C(=O)O)C3)c2C1 [Compound 172] | 0.001 to 0.01 µM
COC(=O)N1CCc2ccc3c(nc([C@H]4CC[C@H](S(N)(=O)=O)CC4)n3[C@H](C)Cc3ccccc3)c2C1 [Compound 301] | 0.1 to 1 µM
COC(=O)N1CCc2ccc3c(nc(C4CCN(C(C)=O)CC4)n3C[C@@H](C(=O)O)c3ccccc3)c2C1 [Compound 62] | 0.001 to 0.01 µM
COC(=O)N1CCc2ccc3c(nc(C4CCN(S(N)(=O)=O)CC4)n3[C@H](C)Cc3ccccc3)c2C1 [Compound 330] | 0.1 to 1 µM

— US20250188079A1, “INHIBITING CYCLIC AMP-RESPONSIVE ELEMENT-BINDING PROTEIN (CREB)” (Forma Therapeutics, Inc., priority 2019, published 2025)
